In patent US8389730B2, “Compositions and methods for the treatment of disease associated with TRP-P8 expression” (Dendreon Corporation, priority 2003, dated 2013):

Target: T1, Trp-p8 (Homo sapiens, UniProt Q7Z2W7, T58I)
T1 construct: expressed in transfected cells
Test: Cell viability (ATP) assay for Trp-p8 antagonists: protection of CHO/Trp-p8 cells from toxic control agonist D-1607
Type: cell-based
Conditions: 37° C., ATP level relative to DMSO; for Relative Viability (%) at 10 μM: Table 2, Formula VIII antagonists, 10 μM compound plus toxic concentration of control agonist D-1607, CHO/Trp-p8 cells; for Rel. Viab. (%) at 10 μM: Table 3, Formula VII antagonists, 10 μM compound plus toxic concentration of control agonist, CHO/Trp-p8 cells
Description: FIG. 4 is a graph depicting exemplary results from a primary screen for Trp-p8 antagonists using the ATP viability assay, described herein, with CHO/Trp-p8 cells at 37° C. CHO/Trp-p8 cells were exposed to compounds, at different concentrations, in 1% DMSO or 1% DMSO in combination with a toxic concentration of the Trp-p8 agonist 1607. The viability of cells was measured after 24-26 hours at 37° C. using the ATP assay.
As a primary screen for efficacy and specificity for agonists, both the non-transfected CHO and CHO/Trp-p8 cells were exposed to 10 μM of test compounds in 1% dimethylsulfoxide (DMSO) or 1% DMSO (control) in a 96-well black walled, black-bottomed, cell-culture treated plate. DMSO was the solvent for all of the compounds tested. After 24-26 hours at 37° C., the cells were lysed and ATP concentration determined via a chemiluminescence assay using a commercially available reagent kit—Cell Titer-Glo (Promega; Madison, Wis.). […] (EC50 is defined herein as the agonist concentration at which there is a 50% reduction in cell viability).
Trp-p8 antagonists were identified by employing a cell viability assay with CHO/Trp-p8 cells at 37° C. (see Example 7) with the following modification. Within the context of the present invention, compounds that protect CHO/Trp-p8 cells from the toxic effect of a control agonist thereby maintaining the viability of the CHO/Trp-p8 cell exposed to a Trp-p8 agonist is defined as antagonist. As a primary screen for antagonists, CHO/Trp-p8 cells were exposed to 10 μM of test compounds in 1% dimethylsulfoxide (DMSO) or 1% DMSO plus a toxic concentration of a control agonist, D-1607.

T1 sequence (Q7Z2W7 whole entry T58I): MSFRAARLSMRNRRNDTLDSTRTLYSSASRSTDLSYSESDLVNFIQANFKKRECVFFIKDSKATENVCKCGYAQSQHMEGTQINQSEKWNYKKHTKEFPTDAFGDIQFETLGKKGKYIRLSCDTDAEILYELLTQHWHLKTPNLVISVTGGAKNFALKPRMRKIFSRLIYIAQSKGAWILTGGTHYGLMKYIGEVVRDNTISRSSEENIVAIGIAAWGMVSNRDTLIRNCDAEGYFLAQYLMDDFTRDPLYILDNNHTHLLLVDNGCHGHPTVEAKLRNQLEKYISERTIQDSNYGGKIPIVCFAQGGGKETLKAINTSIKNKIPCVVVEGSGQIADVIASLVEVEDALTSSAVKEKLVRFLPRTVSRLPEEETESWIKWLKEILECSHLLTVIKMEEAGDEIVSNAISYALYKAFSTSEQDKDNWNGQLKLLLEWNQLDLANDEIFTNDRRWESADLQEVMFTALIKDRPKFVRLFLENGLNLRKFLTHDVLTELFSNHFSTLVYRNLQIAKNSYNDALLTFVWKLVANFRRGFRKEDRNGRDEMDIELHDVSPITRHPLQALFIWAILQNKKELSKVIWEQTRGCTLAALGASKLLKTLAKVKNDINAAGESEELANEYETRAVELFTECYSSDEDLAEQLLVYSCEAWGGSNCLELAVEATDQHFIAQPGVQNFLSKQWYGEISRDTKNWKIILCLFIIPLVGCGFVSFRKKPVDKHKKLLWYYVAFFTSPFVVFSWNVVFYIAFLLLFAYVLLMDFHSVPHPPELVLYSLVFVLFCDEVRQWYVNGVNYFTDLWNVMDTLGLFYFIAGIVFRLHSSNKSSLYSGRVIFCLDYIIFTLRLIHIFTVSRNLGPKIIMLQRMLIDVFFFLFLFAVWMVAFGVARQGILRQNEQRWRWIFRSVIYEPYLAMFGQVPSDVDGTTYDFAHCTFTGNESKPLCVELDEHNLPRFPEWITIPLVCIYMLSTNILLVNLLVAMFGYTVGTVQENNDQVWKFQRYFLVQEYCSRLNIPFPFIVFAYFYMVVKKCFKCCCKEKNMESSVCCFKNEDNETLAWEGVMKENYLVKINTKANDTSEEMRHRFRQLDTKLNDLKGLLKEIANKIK

CC(C)[C@@H]1CC[C@@H](C)C[C@H]1OC(=O)N1CCc2ccccc2C1 [compound 1457]
Relative Viability (%) at 10 μM: 112%

COc1ccc(C2c3[nH]c4ccccc4c3CCN2C(=O)[C@@H]2C[C@H](C)CC[C@H]2C(C)C)cc1CN1CCc2cc(OC)c(OC)cc2C1C (stereo partly drawn) [compound 2676]
Relative Viability (%) at 10 μM: 83%

CC(C)[C@@H]1CC[C@@H](C)C[C@H]1OCC(=O)NCC1(c2ccccc2)CCCC1 [compound 1745]
Relative Viability (%) at 10 μM: 88%

CC(C)[C@@H]1CC[C@@H](C)C[C@H]1OCC(=O)N1CCn2cccc2C1C (stereo partly drawn) [compound 1918]
Relative Viability (%) at 10 μM: 94%

Fc1ccc(N2CCN(c3ncnc4c3cnn4-c3ccccc3)CC2)cc1 [compound 159]
Rel. Viab. (%) at 10 μM: 95%

CC(C)[C@@H]1CC[C@@H](C)C[C@H]1OCC(=O)N1CCc2ccccc2C1 [compound 1688]
Relative Viability (%) at 10 μM: 91%

Cc1ccccc1CCNC(=O)CO[C@@H]1C[C@H](C)CC[C@H]1C(C)C [compound 1923]
Relative Viability (%) at 10 μM: 116%

CC(C)[C@@H]1CC[C@@H](C)C[C@H]1NS(=O)(=O)c1c(Cl)cc(Cl)cc1Cl [compound 2131]
Relative Viability (%) at 10 μM: 59%

Cc1cc(N2CCN(Cc3ccc4c(c3)SCO4)CC2)n2nc(C)c(-c3ccc(Br)cc3)c2n1 [compound 1313]
Rel. Viab. (%) at 10 μM: 92%

c1ccc(Cn2ncc3c(N4CCN(c5ccccn5)CC4)ncnc32)cc1 [compound 13]
Rel. Viab. (%) at 10 μM: 91%

CC(C)[C@@H]1CC[C@@H](C)C[C@H]1NC(=O)NCCN1CCCc2ccccc21 [compound 1815]
Relative Viability (%) at 10 μM: 87%

OC(F)(F)Oc1ccc(Nc2nc(N3CCCCCC3)nc(N3CCN(C45CC6CC(CC(C6)C4)C5)CC3)n2)cc1 [compound 812]
Rel. Viab. (%) at 10 μM: 99%

Cc1cc(N2CCN(c3cc(N4CCN(CCO)CC4)ccc3[N+](=O)[O-])CC2)c2ccccc2n1 [compound 74]
Rel. Viab. (%) at 10 μM: 81%

O=C1c2ccccc2-c2onc3c(N4CCN(C5CCCCC5)CC4)cc(Nc4ccc5c(c4)OCO5)c1c23 [compound 881]
Rel. Viab. (%) at 10 μM: 82%

COc1ccccc1NC(=O)CO[C@@H]1C[C@H](C)CC[C@H]1C(C)C [compound 1709]
Relative Viability (%) at 10 μM: 95%

CC(C)[C@@H]1CC[C@@H](C)C[C@H]1NC(=O)NCCN(Cc1ccccc1)C(C)C [compound 1885]
Relative Viability (%) at 10 μM: 97%

O=[N+]([O-])c1ccc(N2CCN(c3ccc(C(F)(F)F)cc3[N+](=O)[O-])CC2)cc1NCc1ccccc1 [compound 27]
Rel. Viab. (%) at 10 μM: 87%

CC(C)[C@@H]1CC[C@@H](C)C[C@H]1OCC(=O)N1c2ccccc2CC1C (stereo partly drawn) [compound 1691]
Relative Viability (%) at 10 μM: 92%

c1ccc(CNc2nc(N3CCN(c4ccccc4)CC3)nc3ccccc23)cc1 [compound 67]
Rel. Viab. (%) at 10 μM: 102%

CC(C)[C@@H]1CC[C@@H](C)C[C@H]1NC(=O)NC1CCCCCC1 [compound 1876]
Relative Viability (%) at 10 μM: 86%

CCCc1c(C(=O)N[C@@H]2C[C@H](C)CC[C@H]2C(C)C)cnn1-c1ccccc1 [compound 2067]
Relative Viability (%) at 10 μM: 105%

CCCCOc1ccc(C(=O)N[C@@H]2C[C@H](C)CC[C@H]2C(C)C)cc1 [compound 2044]
Relative Viability (%) at 10 μM: 94%

Cc1ccc(O)c(CN[C@@H]2C[C@H](C)CC[C@H]2C(C)C)c1 [compound 2710]
Relative Viability (%) at 10 μM: 70%

CC(C)[C@@H]1CC[C@@H](C)C[C@H]1OC(=O)N1CCn2cccc2C1C (stereo partly drawn) [compound 1940]
Relative Viability (%) at 10 μM: 110%

CC(C)[C@@H]1CC[C@@H](C)C[C@H]1NC(=O)NCCCSC1CCCCC1 [compound 1882]
Relative Viability (%) at 10 μM: 85%

Cc1nc2sc(C(c3ccc(Br)cc3)N3CCN(C(c4ccccc4)c4ccccc4)CC3)c(O)n2n1 (stereo not drawn) [compound 1021]
Rel. Viab. (%) at 10 μM: 92%

Cc1ccc(C2C(=O)N(C3CCC(C)CC3)CC(=O)N2C2CCCC2)cc1 (stereo not drawn) [compound 1262]
Rel. Viab. (%) at 10 μM: 86%

c1ccc(Cc2nc(N3CCN(c4ccccn4)CC3)c3c4c(sc3n2)CCCC4)cc1 [compound 1323]
Rel. Viab. (%) at 10 μM: 88%

CCCC1c2cccn2CCN1C(=O)O[C@@H]1C[C@H](C)CC[C@H]1C(C)C (stereo partly drawn) [compound 1941]
Relative Viability (%) at 10 μM: 98%

Clc1ccccc1N1CCN(c2ncnc3c2cnn3-c2ccccc2)CC1 [compound 51]
Rel. Viab. (%) at 10 μM: 100%

CC(C)[C@@H]1CC[C@@H](C)C[C@H]1C(=O)Nc1ccc(S(=O)(=O)N2CCCCCC2)cc1 [compound 2865]
Relative Viability (%) at 10 μM: 91%

CC(C)[C@@H]1CC[C@@H](C)C[C@H]1NCc1c[nH]nc1-c1ccc(F)cc1 [compound 2752]
Relative Viability (%) at 10 μM: 65%

CC(C)[C@@H]1CC[C@@H](C)C[C@H]1NC(=O)N1CCc2ccccc2C1 [compound 1819]
Relative Viability (%) at 10 μM: 86%

Cc1nc2sc(C(c3cccc(O)c3)N3CCN(C(c4ccccc4)c4ccccc4)CC3)c(O)n2n1 (stereo not drawn) [compound 1027]
Rel. Viab. (%) at 10 μM: 84%

O=[N+]([O-])c1cc(Cl)ccc1N1CCN(c2ccc([N+](=O)[O-])c3cccnc23)CC1 [compound 34]
Rel. Viab. (%) at 10 μM: 82%

COc1ccccc1CNC(=O)CO[C@@H]1C[C@H](C)CC[C@H]1C(C)C [compound 1673]
Relative Viability (%) at 10 μM: 112%

CC(C)[C@@H]1CC[C@@H](C)C[C@H]1OCC(=O)NCc1ccccc1Cl [compound 1669]
Relative Viability (%) at 10 μM: 86%

O=C1C(c2ccc(F)cc2Cl)N(C2CCCc3ccccc32)C(=O)CN1C1CCCCCC1 (stereo not drawn) [compound 1280]
Rel. Viab. (%) at 10 μM: 87%

CC(C)[C@@H]1CC[C@@H](C)C[C@H]1OC(=O)N1CCc2ccccc21 [compound 1504]
Relative Viability (%) at 10 μM: 90%

CC(C)[C@@H]1CC[C@@H](C)C[C@H]1NC(=O)N1c2ccccc2CC1C (stereo partly drawn) [compound 1781]
Relative Viability (%) at 10 μM: 91%

CC(NC(=O)CO[C@@H]1C[C@H](C)CC[C@H]1C(C)C)c1ccccc1 (stereo partly drawn) [compound 1664]
Relative Viability (%) at 10 μM: 107%

CC(C)CN(CCNC(=O)CO[C@@H]1C[C@H](C)CC[C@H]1C(C)C)CC(C)C [compound 1920]
Relative Viability (%) at 10 μM: 81%

CC(C)[C@@H]1CC[C@@H](C)C[C@H]1NC(=O)CCC1CCCC1 [compound 1996]
Relative Viability (%) at 10 μM: 89%

CCN(CCNC(=O)CO[C@@H]1C[C@H](C)CC[C@H]1C(C)C)c1cccc(C)c1 [compound 1937]
Relative Viability (%) at 10 μM: 101%

CC(C)[C@@H]1CC[C@@H](C)C[C@H]1NC(=O)SCc1ccccc1Cl [compound 2306]
Relative Viability (%) at 10 μM: 92%

CC(C)[C@@H]1CC[C@@H](C)C[C@H]1OCC(=O)NCCc1cccs1 [compound 1925]
Relative Viability (%) at 10 μM: 94%

COc1ccccc1N1CCN(CC(O)COC2CC(C)CCC2C(C)C)CC1.Cl.Cl (stereo not drawn) [compound 36]
Rel. Viab. (%) at 10 μM: 87%

CC1CCC(C(C)C)C(OCC(O)CN2CCN(Cc3ccc(Cl)cc3)CC2)C1 (stereo not drawn) [compound 2496]
Rel. Viab. (%) at 10 μM: 82%

O=C1C(c2ccc(Cl)cc2)N(C2CCCCCC2)C(=O)CN1C1CCCC1 (stereo not drawn) [compound 1283]
Rel. Viab. (%) at 10 μM: 100%

Cc1ccc(C(c2sc3nc(C)nn3c2O)N2CCN(C(c3ccccc3)c3ccccc3)CC2)cc1 (stereo not drawn) [compound 1019]
Rel. Viab. (%) at 10 μM: 87%

Cc1ccc(C)n1-c1ccc(N2CCN(c3ccccc3)CC2)c([N+](=O)[O-])c1 [compound 103]
Rel. Viab. (%) at 10 μM: 99%

COc1cc(C(c2sc3nc(C)nn3c2O)N2CCN(C(c3ccccc3)c3ccccc3)CC2)cc(OC)c1OC (stereo not drawn) [compound 1028]
Rel. Viab. (%) at 10 μM: 85%

Cc1nc2sc(C(c3cccc(F)c3)N3CCN(C(c4ccccc4)c4ccccc4)CC3)c(O)n2n1 (stereo not drawn) [compound 1026]
Rel. Viab. (%) at 10 μM: 92%

Cc1ccnc(N(Cc2ccccc2)C(=O)[C@@H]2C[C@H](C)CC[C@H]2C(C)C)c1 [compound 2639]
Relative Viability (%) at 10 μM: 102%

CCc1ccc(-c2n[nH]cc2CN[C@@H]2C[C@H](C)CC[C@H]2C(C)C)cc1 [compound 2754]
Relative Viability (%) at 10 μM: 74%

CC(C)[C@@H]1CC[C@@H](C)C[C@H]1OCC(=O)N1CCCc2ccccc21 [compound 1696]
Relative Viability (%) at 10 μM: 82%

CCCC1c2cccn2CCC1C(=O)N[C@@H]1C[C@H](C)CC[C@H]1C(C)C (stereo partly drawn) [compound 1838]
Relative Viability (%) at 10 μM: 88%
